# Measured values reported in US20250250582A1, “Plant Cells and Plants Modified to Increase Herbicide Resistance and Stress Tolerance and Methods of Using the Same” (The Board of Trustees of the University of Arkansas, priority 2018, published 2025).
# Where “and” joins values, the source holds several entries; their conditions need not be identical. Equal entries are not always repeated.
# How the values were obtained:
# [1] = tested on: multiple-resistant E. colona (ECO-R); assay: Herbicide resistance profile of ECO-R; assay type: in vivo, Echinochloa colona; conditions: data not shown
# Description: (§1) Beginning in 2010, through the 2016 cropping cycle, Echinochloa spp. from throughout the rice producing counties of Arkansas, USA, located along the Mississippi River were sampled for a survey of the current status of herbicide resistance. Seeds were bulk sampled from plants that had matured in rice and soybean production fields, which had survived at least one herbicide application, were collected and sent to the University of Arkansas Altheimer Laboratory in Fayetteville for characterization and evaluation of herbicide resistance to common rice herbicides. […] From this screening program, two populations of E. colona were selected for use in this experiment. […] To establish inbred and homozygous accessions for the experiment, a single plant, verified as resistant/susceptible of ECO-R and ECO-S were grown in isolation to produce seed for further experiments.
# Accession source and population profiling. From 2010 to 2016, the University of Arkansas weed physiology group has been collecting putative herbicide-resistant Echinochloa populations from rice production fields throughout the state of Arkansas. […] Collections took place in the late summer to early fall prior to rice harvest; these accessions were bulk sampled by in-field location and farm, with field histories collected when possible. All of the samples were submitted to the University of Arkansas Altheimer Laboratory for assessment of their resistance profile and characterized according to their species. […] Populations with unique profiles and of interest for further research were then grown in isolation to produce pureline seed. […] Another accession, E. colona susceptible (ECO-S), was also selected and grown in isolation. This accession was selected because of its similar cropping history and geographic location, as well as its high level of susceptibility to the herbicides of interest.
# [2] = tested on: susceptible E. colona standard; assay: Determination of resistance level (visual injury), susceptible plants; conditions: 2 X dose, visual 3 wk after treatment
# [3] = tested on: susceptible E. colona (ECO-S); assay: Herbicide resistance profile of ECO-S; assay type: in vivo, Echinochloa colona
# Description: as §1
# Accession source and population profiling. From 2010 to 2016, the University of Arkansas weed physiology group has been collecting putative herbicide-resistant Echinochloa populations from rice production fields throughout the state of Arkansas. […] Collections took place in the late summer to early fall prior to rice harvest; these accessions were bulk sampled by in-field location and farm, with field histories collected when possible. […]
# [4] = tested on: ECO-R compared to ECO-S after herbicide treatment; assay: RNA-sequencing differential gene expression, ECO-R-T compared to ECO-S-T
# Description: Pure-line generated seed of each accession were germinated in pots containing potting soil within a temperature/light controlled growth chamber set to a 14-hr day length, 33 C day temperature, and 24 C night time to simulate environmental conditions early in the rice growing season. A single plant was maintained in each of the pots and used for the treatments; two pots were used as individual biological replicates. […] Pots for each of the respective treatments were labeled as either ECO-R/S-T for the treated samples and ECO-R/S-N for the non-treated counterpart. To minimize the effect that the sprayer may play in the application, both plants of the ECO-R and ECO-S were treated at the same time. After approximately 30 minutes, allowing for the plants to dry, the treated and non-treated plants of both accessions were moved back into the growth chamber. Precisely 24-hours after application, the aboveground portion of each of the plants were removed and immediately frozen in liquid nitrogen to cease all biological function. Samples were then transferred to RNAlater™-ICE (Invitrogen, Carlsbad CA, USA) for shipment to the Clemson University Genomics Institute (CUGI), in Clemson, South Carolina.
# RNA was extracted from the young leaf tissues of both replications for the ECO-R and ECO-S, T and N samples, at Clemson University. Total RNA was extracted with a kit according to the manufactures instructions. The extracted RNA was treated with DNase (Invitrogen, Calsbad, CA, USA) to remove any DNA contamination prior to further processing. The samples were prepared for sequencing by CUGI. For library preparation, the TruSeq Stranded Total RNA kit (Illumina Inc., San Diego, CA, USA) was used according to the instructions provided by the manufacturer to produce a paired-end library for sequencing. Ribosomal RNA was removed using target-specific oligonucleotides paired with rRNA removal beads, removing all cytoplasmic and mitochondrial rRNA that may result in poor quality results. RNA was fragmented and reverse transcribed to cDNA using random primers, followed by a second strand cDNA synthesis. Each fragment is then ligated with an additional ‘A’ and an adapter for sequencing. The PCR enriched product is then used to create the final cDNA library. All samples were sequenced on an Illumina Hiseq 2500 platform housed in the Holdings Cancer Center at the Medical University of South Carolina, Charleston, SC, USA. Samples, regardless of treatments or replication were ran across three lanes to reduce sequencing errors from the equipment. The resulting data were processed by CUGI.
# A de novo transcriptome was assembled from the treatments described for this experiment as well as several treatments, which included herbicides profiled in ECO-R. The treatments were applied to both ECO-R and ECO-S samples with two replications as described previously. In total, 20 individual plants, from both the ECO-R and ECO-S accessions, as well as T and NT samples, were used for the assembly. The transcriptome was assembled using the Trinity RNA-Seq pipeline (Broad Institute, Cambridge, MA, USA). Raw data were assessed for quality using FastQC (Babraham Institute, Cambridge, UK) and then processed to remove adapter sequences and low quality bases using a sliding window method. The processed data were then rerun using FastQC to ensure high quality reads. Using the TrinityRNASeq 2.2.0 software, the samples were normalized, by replication, using a coverage size of 100 and kmer of 32. The normalized reads were then assembled as transcripts and genes using Trinity with the stranded library set as the default.
smiles,measurement,setting,value
CCC(=O)Nc1ccc(Cl)c(Cl)c1 [propanil],level of resistance,[1],> 8 × field dose
same,susceptible plants killed,[2],100%
same,tolerance observed,[3]; ECO-S (Example 1),approximately twice
same,tolerance observed,[3]; ECO-S (Example 2),~3 × field dose
same,ABA 8′-hydroxylase 1 transcripts fold change,"[4]; ECO-R-T vs ECO-S-T, 24 h",< −6.5 fold
same,ABA receptor PYL5 fold change,"[4]; ECO-R-T vs ECO-S-T, 24 h",−4.8 fold
same,ABA receptor PYL8 fold change,"[4]; ECO-R-T vs ECO-S-T, 24 h",−3.7 fold
same,ACC synthase fold change,"[4]; ECO-R-T vs ECO-S-T, 24 h",8.6 fold
same,Beta-glucosidase 22 fold change,"[4]; ECO-R-T vs ECO-S-T, 24 h",5.9 fold
same,CYP71A1 Fold Change,"[4]; ECO-R-T vs ECO-S-T, 24 h",3.6 fold
same,CYP72A15 Fold Change,"[4]; ECO-R-T vs ECO-S-T, 24 h",6.6 fold and 11.3 fold
same,DNA-directed RNA polymerase 1 subunit RPA112 III fold change,"[4]; ECO-R-T vs ECO-S-T, 24 h",10.3 fold
same,ERF4 fold change,"[4]; ECO-R-T vs ECO-S-T, 24 h",4.3 fold
same,ERF7 fold change,"[4]; ECO-R-T vs ECO-S-T, 24 h",8 fold
same,ERF11 fold change,"[4]; ECO-R-T vs ECO-S-T, 24 h",3.4 fold
same,GST1 fold change,"[4]; ECO-R-T vs ECO-S-T, 24 h",3.9 fold
same,GST4 fold change,"[4]; ECO-R-T vs ECO-S-T, 24 h",> 5.3 fold
same,GSTU17 fold change,"[4]; ECO-R-T vs ECO-S-T, 24 h",10.9 fold
same,UGT73D1 fold change,"[4]; ECO-R-T vs ECO-S-T, 24 h",7.3 fold
same,UGT88A1 Fold Change,"[4]; ECO-R-T vs ECO-S-T, 24 h",3.2 fold
same,UGT88F3 fold change,"[4]; ECO-R-T vs ECO-S-T, 24 h",5.9 fold
same,ferredoxin-6 fold change,"[4]; ECO-R-T vs ECO-S-T, 24 h",−6.5 fold
same,nitrate reductase fold change,"[4]; ECO-R-T vs ECO-S-T, 24 h",< −6 fold
same,nitrate transporters fold change,"[4]; ECO-R-T vs ECO-S-T, 24 h",< −4 fold
same,polymerase III subunit 2 fold change,"[4]; ECO-R-T vs ECO-S-T, 24 h",10.8 fold
same,trehalose biosynthesis enzymes fold change,"[4]; ECO-R-T vs ECO-S-T, 24 h",< −3 fold
same,Phosphoenolpyruvate carboxylase (PEPc) kinase 1 fold change,[4]; in vivo,> 5 fold
